Results reported in patent US20070149535A1, “Protein kinase inhibitors” (ONCALIS AG, priority 2004, published 2007).

Experiments:
Assay in all cases: Yeast growth assay, specificity profiling
Assay type in all cases: cell-based
Design in all cases: key: “−” indicates no growth restoration i.e. no activity against the particular kinase; “+”, “++”, and “+++” indicate activity detected by restoration of growth, classified into three categories of potency; “+”, “++”, and “+++” indicate activity detected by restoration of growth, classified into three categories of potency; “+”, “++”, and “+++” indicate activity detected by restoration of growth, classified into three categories of potency
Settings in all cases: 7 concentrations between 0.2 and 100 μM
EphB4 = molecular target: T1, EphB4 (Homo sapiens, UniProt P54760)
T1 construct: expressed in transfected cells; host or cells: yeast
T1 sequence (P54760 16-987): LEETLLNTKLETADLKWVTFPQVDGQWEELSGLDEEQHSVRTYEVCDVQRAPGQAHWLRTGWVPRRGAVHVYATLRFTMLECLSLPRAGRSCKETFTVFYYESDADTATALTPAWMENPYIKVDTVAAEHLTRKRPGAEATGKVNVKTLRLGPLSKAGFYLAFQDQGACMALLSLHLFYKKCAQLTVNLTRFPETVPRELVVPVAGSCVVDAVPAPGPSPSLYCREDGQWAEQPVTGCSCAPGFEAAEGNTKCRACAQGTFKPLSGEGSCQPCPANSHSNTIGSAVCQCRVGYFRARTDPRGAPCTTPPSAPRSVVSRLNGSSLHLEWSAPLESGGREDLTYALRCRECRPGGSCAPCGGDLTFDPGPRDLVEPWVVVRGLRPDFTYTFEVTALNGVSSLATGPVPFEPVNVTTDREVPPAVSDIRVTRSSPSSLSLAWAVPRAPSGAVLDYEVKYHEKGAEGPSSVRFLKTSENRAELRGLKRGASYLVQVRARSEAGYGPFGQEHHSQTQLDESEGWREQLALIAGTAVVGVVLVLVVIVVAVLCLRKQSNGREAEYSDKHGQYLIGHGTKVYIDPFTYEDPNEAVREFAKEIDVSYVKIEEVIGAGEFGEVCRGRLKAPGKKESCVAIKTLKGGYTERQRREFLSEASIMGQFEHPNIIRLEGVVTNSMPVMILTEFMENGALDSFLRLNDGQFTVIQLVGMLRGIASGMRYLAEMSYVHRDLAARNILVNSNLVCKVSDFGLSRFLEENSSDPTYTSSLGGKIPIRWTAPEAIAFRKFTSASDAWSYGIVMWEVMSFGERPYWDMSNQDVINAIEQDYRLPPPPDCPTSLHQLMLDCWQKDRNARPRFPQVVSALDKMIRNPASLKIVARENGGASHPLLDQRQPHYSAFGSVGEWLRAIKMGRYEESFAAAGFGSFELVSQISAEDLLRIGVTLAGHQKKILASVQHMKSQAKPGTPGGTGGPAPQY
Method: (§1) Specificity Profiling: Yeast Growth Assay
(§2) The yeast growth assay was performed as described in “Method for the identification and/or validation of receptor tyrosine kinase inhibitors” PCT/CH03/00694 (2004/10/24), section “Modes for Carrying out the Invention, Experiment 1 and Experiment 2.
(§3) Briefly, yeast cells carrying plasmids with the RTK of interest were grown in glucose containing medium (repressing expression). The cultures were diluted into galactose containing medium, which induces the expression of the kinase. Expression of the kinase inhibits growth of the yeast cells, which allows for positive selection of kinase inhibitors restoring growth of cells. Compounds were titrated at 7 concentrations between 0.2 and 100 μM.
(§4) Specificity profiling of compounds, using the yeast growth assay method described above. “−” indicates no growth restoration i.e. no activity against the particular kinase, “+”, “++”, and “+++” indicate activity detected by restoration of growth, classified into three categories of potency according to the maximal level of growth restoration reached and the concentration at which the maximal growth restoration is reached.

InsR = molecular target: T2, InsR (Homo sapiens, UniProt P06213)
T2 construct: expressed in transfected cells; host or cells: yeast
T2 sequence (P06213 28-1382): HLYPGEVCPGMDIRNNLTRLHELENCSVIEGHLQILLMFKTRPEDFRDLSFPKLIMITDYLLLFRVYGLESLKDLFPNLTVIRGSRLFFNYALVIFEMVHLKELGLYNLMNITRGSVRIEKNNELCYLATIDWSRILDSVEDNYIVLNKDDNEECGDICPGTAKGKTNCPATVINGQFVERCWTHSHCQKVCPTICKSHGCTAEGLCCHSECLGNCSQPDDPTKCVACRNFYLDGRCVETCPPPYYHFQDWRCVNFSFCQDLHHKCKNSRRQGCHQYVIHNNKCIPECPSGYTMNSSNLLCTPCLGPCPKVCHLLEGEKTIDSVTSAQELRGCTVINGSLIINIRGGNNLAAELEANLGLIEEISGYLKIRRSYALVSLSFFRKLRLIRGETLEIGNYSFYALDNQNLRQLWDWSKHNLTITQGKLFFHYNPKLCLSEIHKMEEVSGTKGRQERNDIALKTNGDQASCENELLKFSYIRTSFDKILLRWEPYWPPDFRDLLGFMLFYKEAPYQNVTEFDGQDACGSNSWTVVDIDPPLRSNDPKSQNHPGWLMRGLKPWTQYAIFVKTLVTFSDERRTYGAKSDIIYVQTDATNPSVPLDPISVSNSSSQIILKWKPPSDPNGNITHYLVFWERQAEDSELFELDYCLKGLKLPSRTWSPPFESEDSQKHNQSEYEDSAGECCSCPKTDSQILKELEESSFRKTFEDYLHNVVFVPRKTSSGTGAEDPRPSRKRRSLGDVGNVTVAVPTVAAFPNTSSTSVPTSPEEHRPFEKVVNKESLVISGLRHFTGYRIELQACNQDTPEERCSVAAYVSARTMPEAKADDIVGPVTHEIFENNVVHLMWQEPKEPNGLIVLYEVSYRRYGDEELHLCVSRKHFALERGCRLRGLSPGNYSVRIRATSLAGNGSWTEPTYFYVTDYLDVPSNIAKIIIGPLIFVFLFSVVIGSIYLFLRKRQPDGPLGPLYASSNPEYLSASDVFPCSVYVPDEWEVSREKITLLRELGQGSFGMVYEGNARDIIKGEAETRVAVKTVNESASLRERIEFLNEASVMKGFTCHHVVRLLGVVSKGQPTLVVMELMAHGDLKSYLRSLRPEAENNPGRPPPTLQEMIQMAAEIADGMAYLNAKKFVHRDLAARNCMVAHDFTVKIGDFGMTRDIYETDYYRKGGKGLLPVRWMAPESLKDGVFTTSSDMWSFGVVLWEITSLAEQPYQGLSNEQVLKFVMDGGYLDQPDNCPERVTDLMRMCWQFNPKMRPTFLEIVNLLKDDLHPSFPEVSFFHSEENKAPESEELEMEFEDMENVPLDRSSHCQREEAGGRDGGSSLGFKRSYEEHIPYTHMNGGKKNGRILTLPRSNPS
Method: as §1, §2, §3, §4

IGF-1R = molecular target: T3, IGF-1R (Homo sapiens, UniProt P08069)
T3 construct: expressed in transfected cells; host or cells: yeast
T3 sequence (P08069 31-1367): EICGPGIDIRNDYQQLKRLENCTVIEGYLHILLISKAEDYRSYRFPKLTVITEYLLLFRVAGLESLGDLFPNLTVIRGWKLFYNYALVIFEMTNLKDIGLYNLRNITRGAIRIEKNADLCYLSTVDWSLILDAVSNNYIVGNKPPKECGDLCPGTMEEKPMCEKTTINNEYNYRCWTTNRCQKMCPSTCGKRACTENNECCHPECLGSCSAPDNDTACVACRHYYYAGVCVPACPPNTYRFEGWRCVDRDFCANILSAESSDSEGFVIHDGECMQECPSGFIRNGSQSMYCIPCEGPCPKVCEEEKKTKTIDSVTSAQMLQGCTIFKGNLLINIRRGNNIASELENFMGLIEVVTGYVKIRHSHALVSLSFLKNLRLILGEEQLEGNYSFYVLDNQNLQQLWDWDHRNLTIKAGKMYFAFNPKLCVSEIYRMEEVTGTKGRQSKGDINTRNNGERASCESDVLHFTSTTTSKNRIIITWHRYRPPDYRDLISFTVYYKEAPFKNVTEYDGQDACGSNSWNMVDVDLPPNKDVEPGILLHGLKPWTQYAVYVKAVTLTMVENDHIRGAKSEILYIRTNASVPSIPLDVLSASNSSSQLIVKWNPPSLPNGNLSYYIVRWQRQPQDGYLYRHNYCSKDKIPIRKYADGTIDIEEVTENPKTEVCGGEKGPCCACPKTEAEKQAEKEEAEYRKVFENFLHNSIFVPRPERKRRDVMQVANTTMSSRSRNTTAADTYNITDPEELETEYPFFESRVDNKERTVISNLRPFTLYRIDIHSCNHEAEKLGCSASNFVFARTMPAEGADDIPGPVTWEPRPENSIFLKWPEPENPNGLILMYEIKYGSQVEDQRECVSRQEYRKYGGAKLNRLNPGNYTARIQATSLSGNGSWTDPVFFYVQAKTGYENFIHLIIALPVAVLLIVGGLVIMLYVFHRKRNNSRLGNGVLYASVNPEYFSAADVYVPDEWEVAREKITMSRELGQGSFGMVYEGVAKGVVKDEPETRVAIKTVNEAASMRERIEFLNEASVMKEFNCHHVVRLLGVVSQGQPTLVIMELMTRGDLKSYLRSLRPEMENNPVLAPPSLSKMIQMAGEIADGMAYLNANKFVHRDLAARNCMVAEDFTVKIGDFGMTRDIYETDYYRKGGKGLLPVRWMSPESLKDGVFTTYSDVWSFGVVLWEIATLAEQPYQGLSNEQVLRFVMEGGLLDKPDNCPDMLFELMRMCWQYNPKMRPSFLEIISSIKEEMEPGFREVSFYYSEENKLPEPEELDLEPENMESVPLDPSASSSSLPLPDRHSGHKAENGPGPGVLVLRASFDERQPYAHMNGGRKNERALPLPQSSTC
Method: as §1, §2, §3, §4

In the case of `Cc1nccn2c(Nc3cccc(Cl)c3)c(-c3ccccc3)nc12` [compound 3, (3-Chloro-phenyl)-(8-methyl-2-phenyl-imidazo[1,2-a]pyrazin-3-yl)-amine], the EphB4 growth restoration (EphB4) is reported as “++”, the InsR growth restoration (InsR) is reported as “−” and the IGF-1R growth restoration (IGF-1R) is reported as “−”.

For `COc1cccc(-c2nc3cnccn3c2Nc2cccc(Cl)c2)c1` [compound 7, (3-Chloro-phenyl)-[2-(3-methoxy-phenyl)-imidazo[1,2-a]pyrazin-3-yl]-amine], the EphB4 growth restoration (EphB4) was “+”, the InsR growth restoration (InsR) was “−” and the IGF-1R growth restoration (IGF-1R) was “−”.

In the case of `CC(=O)Nc1ccc(-c2nc3cnccn3c2Nc2cccc(Cl)c2)cc1` [compound 8, N-{4-[3-(3-Chloro-phenylamino)-imidazo[1,2-a]pyrazin-2-yl]-phenyl}-acetamide], the EphB4 growth restoration (EphB4) is reported as “++”, the InsR growth restoration (InsR) is reported as “−” and the IGF-1R growth restoration (IGF-1R) is reported as “−”.

In the case of `Nc1ccc(-c2nc3cnccn3c2Nc2cccc(Cl)c2)cc1` [compound 10, [2-(4-Amino-phenyl)-imidazo[1,2-a]pyrazin-3-yl]-(3-chloro-phenyl)-amine], the EphB4 growth restoration (EphB4) is reported as “+++”, the InsR growth restoration (InsR) is reported as “−” and the IGF-1R growth restoration (IGF-1R) is reported as “−”.

For `CC(C)c1nc2cnccn2c1Nc1cccc(Cl)c1` [compound 12, (3-Chloro-phenyl)-(2-isopropyl-imidazo[1,2-a]pyrazin-3-yl)-amine], the EphB4 growth restoration (EphB4) was “+”, the InsR growth restoration (InsR) was “−” and the IGF-1R growth restoration (IGF-1R) was “−”.

In the case of `Brc1cccc(Nc2c(-c3ccccc3)nc3cnccn23)c1` [compound 14, (3-Bromo-phenyl)-(2-phenyl-imidazo[1,2-a]pyrazin-3-yl)-amine], the EphB4 growth restoration (EphB4) is reported as “−”, the InsR growth restoration (InsR) is reported as “−” and the IGF-1R growth restoration (IGF-1R) is reported as “−”.

For `Clc1ccc(Nc2c(-c3ccccc3)nc3cnccn23)cc1` [compound 16, (4-Chloro-phenyl)-(2-phenyl-imidazo[1,2-a]pyrazin-3-yl)-amine], the EphB4 growth restoration (EphB4) was “+”, the InsR growth restoration (InsR) was “−” and the IGF-1R growth restoration (IGF-1R) was “−”.

In the case of `CNc1nccn2c(Nc3cccc(Cl)c3)c(-c3ccccc3)nc12` [compound 20, N′3-(3-Chloro-phenyl)-N′8-methyl-2-phenyl-imidazo[1,2-a]pyrazine-3,8-diamine], the EphB4 growth restoration (EphB4) is reported as “−”, the InsR growth restoration (InsR) is reported as “−” and the IGF-1R growth restoration (IGF-1R) is reported as “−”.

For `c1ccc(Nc2c(-c3ccccc3)nc3cnccn23)cc1` [compound 23, Phenyl-(2-phenyl-imidazo[1,2-a]pyrazin-3-yl)-amine], the EphB4 growth restoration (EphB4) was “++”, the InsR growth restoration (InsR) was “−” and the IGF-1R growth restoration (IGF-1R) was “−”.

For `Fc1cccc(Nc2c(-c3ccccc3)nc3cnccn23)c1` [compound 26, (3-Fluoro-phenyl)-(2-phenyl-imidazo[1,2-a]pyrazin-3-yl)-amine], the EphB4 growth restoration (EphB4) was “++”, the InsR growth restoration (InsR) was “−” and the IGF-1R growth restoration (IGF-1R) was “−”.

`Fc1ccc(Nc2c(-c3ccccc3)nc3cnccn23)cc1F` [compound 30, (3,4-Difluoro-phenyl)-(2-phenyl-imidazo[1,2-a]pyrazin-3-yl)-amine] was tested, and the EphB4 growth restoration (EphB4) was “++”, the InsR growth restoration (InsR) was “−” and the IGF-1R growth restoration (IGF-1R) was “−”.

For `CC(=O)Nc1ccc(-c2nc3c(C)nccn3c2Nc2cccc(Cl)c2)cc1` [compound 33, N-{4-[3-(3-Chloro-phenylamino)-8-methyl-imidazo[1,2-a]pyrazin-2-yl]-phenyl}-acetamide], the EphB4 growth restoration (EphB4) was “+++”, the InsR growth restoration (InsR) was “−” and the IGF-1R growth restoration (IGF-1R) was “−”.

In the case of `Cc1cccc(Nc2c(-c3ccccc3)nc3cnccn23)c1` [compound 34, (2-Phenyl-imidazo[1,2-a]pyrazin-3-yl)-m-tolyl-amine], the EphB4 growth restoration (EphB4) is reported as “+ −”, the InsR growth restoration (InsR) is reported as “−” and the IGF-1R growth restoration (IGF-1R) is reported as “−”.

With `Clc1cccc(Nc2c(-c3ccccc3)nc3cnccn23)c1` [compound 35, (3-Chloro-phenyl)-(2-phenyl-imidazo[1,2-a]pyrazin-3-yl)-amine] the EphB4 growth restoration (EphB4) was “+”, the InsR growth restoration (InsR) was “−” and the IGF-1R growth restoration (IGF-1R) was “−”.

With `c1ccc(Nc2c(-c3ccc(N4CCOCC4)cc3)nc3cnccn23)cc1` [compound 38, [2-(4-Morpholin-4-yl-phenyl)-imidazo[1,2-a]pyrazin-3-yl]-phenyl-amine] the EphB4 growth restoration (EphB4) was “++”, the InsR growth restoration (InsR) was “+” and the IGF-1R growth restoration (IGF-1R) was “−”.

`Cc1nccn2c(Nc3ccccc3)c(-c3ccccc3)nc12` [compound 39, (8-Methyl-2-phenyl-imidazo[1,2-a]pyrazin-3-yl)-phenyl-amine] was tested, and the EphB4 growth restoration (EphB4) was “+++”, the InsR growth restoration (InsR) was “−” and the IGF-1R growth restoration (IGF-1R) was “−”.

In the case of `COc1cccc(-c2nc3c(C)nccn3c2Nc2cccc(C)c2)c1` [compound 42, [2-(3-Methoxy-phenyl)-8-methyl-imidazo[1,2-a]pyrazin-3-yl]-m-tolyl-amine], the EphB4 growth restoration (EphB4) is reported as “++”, the InsR growth restoration (InsR) is reported as “−” and the IGF-1R growth restoration (IGF-1R) is reported as “−”.

In the case of `Cc1cccc(Nc2c(-c3ccccc3)nc3c(C)nccn23)c1` [compound 43, (8-Methyl-2-phenyl-imidazo[1,2-a]pyrazin-3-yl)-m-tolyl-amine], the EphB4 growth restoration (EphB4) is reported as “+++”, the InsR growth restoration (InsR) is reported as “−” and the IGF-1R growth restoration (IGF-1R) is reported as “−”.

In the case of `Cc1nccn2c(Nc3cccc(F)c3)c(-c3ccccc3)nc12` [compound 44, (3-Fluoro-phenyl)-(8-methyl-2-phenyl-imidazo[1,2-a]pyrazin-3-yl)-amine], the EphB4 growth restoration (EphB4) is reported as “+++”, the InsR growth restoration (InsR) is reported as “−” and the IGF-1R growth restoration (IGF-1R) is reported as “−”.

For `Cc1nccn2c(Nc3ccc(F)c(F)c3)c(-c3ccccc3)nc12` [compound 45, (3,4-Difluoro-phenyl)-(8-methyl-2-phenyl-imidazo[1,2-a]pyrazin-3-yl)-amine], the EphB4 growth restoration (EphB4) was “+++”, the InsR growth restoration (InsR) was “−” and the IGF-1R growth restoration (IGF-1R) was “−”.

In the case of `COc1cccc(-c2nc3c(C)nccn3c2Nc2cccc(Cl)c2)c1` [compound 48, (3-Chloro-phenyl)-[2-(3-methoxy-phenyl)-8-methyl-imidazo[1,2-a]pyrazin-3-yl]-amine], the EphB4 growth restoration (EphB4) is reported as “++”, the InsR growth restoration (InsR) is reported as “−” and the IGF-1R growth restoration (IGF-1R) is reported as “−”.
